Results reported in patent US11878970B2, “Allosteric chromenone inhibitors of phosphoinositide 3-kinase (PI3K) for the treatment of disease” (Petra Pharma Corporation, priority 2021, dated 2024).

Assays:
[1] = target: T1, PI3K-α (PIK3CA) wild-type (WT), p110α/p85α complex (Homo sapiens, UniProt P42336); experiment: PI3K-alpha kinase (PIK3CA) biochemical activity, ADP-Glo, wild-type
T1 construct: Recombinant, catalytically active human full length PIK3KA Wild-type and H1047R mutant; 6×His (N); purchased EMD Millipore Sigma 14-602M
Description: (§1) PI3K-Alpha Kinase (PIK3CA) Activity, Wild-Type and H1047R Mutant and Determining IC50 Values for Inhibitors
(§2) Recombinant, catalytically active human full length PIK3KA Wild-type and H1047R mutant were purchased as 1:1 complex of N-terminal 6×his tagged p110α (catalytic) and untagged p85α (regulatory subunit) from EMD Millipore Sigma (cat. no. 14-602M and 14-792M, respectively). PIP2diC8 (Avanti Polar Lipids Inc., cat. no. 850185) or Soy PI (Avanti Polar Lipids Inc., cat. No. 840044P) was used as lipid substrate. PIP2diC8 or PI lyophilized powder was dissolved in milliQ water to a concentration of 1 mM just before use. 10 mM stock compounds in DMSO were serially diluted 1:3 to generate a 10-point curve and plated using an acoustic liquid handler system (Echo 550 series instrument, Labcyte). A 10× intermediate compound plate (200 uM starting compound concentration and 10% DMSO) was prepared before starting the reaction. A typical reaction mixture (50 uL) comprised 40 mM HEPES buffer, pH 7.4, 25 mM MgCl2, 0.01% v/v triton-X-100, 1% v/v DMSO, 20 mM NaCl, 1-5 nM WT or H1047R PI3K protein, 20 uM ATP, and 50 uM PIP2diC8 or Soy PI. 1% DMSO buffer alone without test compound was employed as MAX control (full activity in the absence of any inhibitor), and no enzyme control was used to determine the level of background Adenosine 5′-diphosphate (ADP) (MIN control). First, Wild-type (WT) and H1047R mutant protein in kinase buffer with all components except ATP were incubated with or without compound at 27° C. for 1 h. After the pre-incubation, the reaction was initiated by the addition of 20 uL of 50 uM ATP (20 uM final concentration). The reaction was allowed to proceed until about 10% conversion of ATP (2 uM ADP) at 27° C. After that time, 5 uL of reaction was mixed with 5 uL of ADP-Kinase Glo Reagent (ADP-Glo Kinase assay kit, Promega cat. no. V9102) supplemented with MgCl2 10 mM to stop the reaction and deplete the remaining ATP for 40 min at room temperature. Then, 10 uL of Kinase Detection Reagent (ADP-Glo Kinase assay kit, Promega cat. no. V9102) was added to simultaneously convert ADP to ATP and allow the newly synthesized ATP to be measured using a luciferase/luciferin reaction. After 30 min at room temperature the light generated was measured using a luminometer (EnVision plate reader, Perkin Elmer). Process data through Genedata-Screener tool. Relative IC50 values are determined using luminescence units by calculating percent inhibition with respect to on-plate “MIN” and “MAX” controls. Data was analyzed using a 4-parameter nonlinear logistic equation (four-parameter logistic concentration-response curve): Y=bot+[(top−bot)/1+(x/IC50)slope] where Y=% inhibition, X=concentration yielding y % inhibition, Bottom=minimum value of y attained by curve, Top=maximum value of y attained by curve and Slope=steepness of curve at IC50. % Inh=[(median Max−x/median Max−median Min)]·100 IC50: concentration of compound that reduces a given response (ligand binding, enzyme response) by 50%. IC50 relative: concentration giving half the compound's maximum response.

[2] = target: T2, PI3K-α (PIK3CA) H1047R mutant, p110α/p85α complex (Homo sapiens, UniProt P42336, H1047R); experiment: PI3K-alpha kinase (PIK3CA) biochemical activity, ADP-Glo, H1047R mutant
T2 construct: Recombinant, catalytically active human full length PIK3KA Wild-type and H1047R mutant; 6×His (N); purchased EMD Millipore Sigma 14-792M
T2 sequence (P42336 whole entry H1047R): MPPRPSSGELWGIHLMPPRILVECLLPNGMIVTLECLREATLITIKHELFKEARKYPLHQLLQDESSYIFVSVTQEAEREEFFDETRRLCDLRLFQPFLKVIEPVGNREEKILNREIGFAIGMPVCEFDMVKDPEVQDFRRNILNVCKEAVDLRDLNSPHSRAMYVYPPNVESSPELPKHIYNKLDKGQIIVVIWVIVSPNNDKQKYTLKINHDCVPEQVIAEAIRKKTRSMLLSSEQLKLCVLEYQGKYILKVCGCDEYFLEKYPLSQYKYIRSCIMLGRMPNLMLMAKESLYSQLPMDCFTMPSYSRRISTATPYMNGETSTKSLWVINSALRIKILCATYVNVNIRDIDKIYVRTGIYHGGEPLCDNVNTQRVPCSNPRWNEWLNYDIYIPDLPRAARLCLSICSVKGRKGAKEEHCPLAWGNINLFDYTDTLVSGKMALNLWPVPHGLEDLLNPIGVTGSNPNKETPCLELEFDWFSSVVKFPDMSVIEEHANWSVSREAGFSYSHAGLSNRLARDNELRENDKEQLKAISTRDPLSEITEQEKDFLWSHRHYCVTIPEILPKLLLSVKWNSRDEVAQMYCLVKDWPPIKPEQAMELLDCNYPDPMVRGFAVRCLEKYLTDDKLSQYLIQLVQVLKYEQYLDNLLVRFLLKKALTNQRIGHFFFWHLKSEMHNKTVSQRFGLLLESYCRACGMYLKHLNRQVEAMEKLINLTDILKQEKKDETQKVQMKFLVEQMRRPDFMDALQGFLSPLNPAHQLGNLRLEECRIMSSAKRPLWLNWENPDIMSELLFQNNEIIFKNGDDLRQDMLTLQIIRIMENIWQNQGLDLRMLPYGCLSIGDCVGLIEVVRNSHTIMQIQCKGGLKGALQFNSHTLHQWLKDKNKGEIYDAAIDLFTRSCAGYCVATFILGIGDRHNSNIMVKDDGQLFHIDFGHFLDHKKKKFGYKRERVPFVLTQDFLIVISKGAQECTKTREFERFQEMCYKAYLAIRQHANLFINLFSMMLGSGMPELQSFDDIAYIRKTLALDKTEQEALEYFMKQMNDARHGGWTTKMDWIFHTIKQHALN
T2 sequence (P27986 whole entry partner): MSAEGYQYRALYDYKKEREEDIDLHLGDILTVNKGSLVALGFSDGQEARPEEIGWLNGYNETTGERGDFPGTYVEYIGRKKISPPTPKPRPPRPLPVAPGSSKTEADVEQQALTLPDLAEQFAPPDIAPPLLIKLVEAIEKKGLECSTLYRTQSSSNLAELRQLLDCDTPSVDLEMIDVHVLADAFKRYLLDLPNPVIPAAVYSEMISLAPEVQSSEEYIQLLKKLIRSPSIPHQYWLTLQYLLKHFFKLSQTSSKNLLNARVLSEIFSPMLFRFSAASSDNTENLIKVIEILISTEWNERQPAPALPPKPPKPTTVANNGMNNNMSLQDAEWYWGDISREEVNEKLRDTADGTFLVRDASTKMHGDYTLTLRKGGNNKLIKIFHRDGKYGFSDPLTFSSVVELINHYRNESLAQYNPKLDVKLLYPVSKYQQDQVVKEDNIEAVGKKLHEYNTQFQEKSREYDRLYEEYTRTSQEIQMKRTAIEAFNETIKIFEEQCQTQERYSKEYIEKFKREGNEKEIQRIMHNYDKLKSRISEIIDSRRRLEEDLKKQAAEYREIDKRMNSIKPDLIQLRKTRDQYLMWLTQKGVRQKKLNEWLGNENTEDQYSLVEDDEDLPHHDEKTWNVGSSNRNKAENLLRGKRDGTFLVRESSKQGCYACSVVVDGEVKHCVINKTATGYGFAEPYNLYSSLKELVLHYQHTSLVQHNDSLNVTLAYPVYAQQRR
Description: as §1, §2

[3] = PIP2diC8 lipid substrate (footnote 1)

IC50 ([1]; Soy PI lipid substrate)	IC50 ([2]; Soy PI lipid substrate)	IC50 [1, 3]	IC50 [2, 3]	SMILES
1 to 5 µM	0.5 to 1 µM			COc1ccc2nc(-c3cc(=O)c4cc(C)cc(C(C)Nc5ccccc5C(=O)O)c4o3)cn2c1 (single isomer, unassigned) [Example 2, 2-[1-[2-(6-Methoxyimidazo[1,2-a]pyridin-2-yl)-6-methyl-4-oxo-chromen-8-yl]ethylamino]benzoic acid]
1 to 5 µM	< 0.5 µM			Cc1cc(C(C)Nc2ccccc2C(=O)O)c2oc(-c3ccc4nc(C)cn4c3)cc(=O)c2c1 (single isomer, unassigned) [Example 17, 2-[1-[6-Methyl-2-(2-methylimidazo[1,2-a]pyridin-6-yl)-4-oxo-chromen-8-yl]ethylamino]benzoic acid]
1 to 5 µM	< 0.5 µM			Cc1cc(C(C)Nc2ccccc2C(=O)O)c2oc(-c3ccc4cc(C)[nH]c4n3)cc(=O)c2c1 (single isomer, unassigned) [Example 20, 2-[1-[6-Methyl-2-(2-methyl-1H-pyrrolo[2,3-b]pyridin-6-yl)-4-oxo-chromen-8-yl]ethylamino]benzoic acid]
0.5 to 1 µM	< 0.5 µM			Cc1cc(C(C)Nc2ccccc2C(=O)O)c2oc(-c3nn(C)c4ccccc34)cc(=O)c2c1 (single isomer, unassigned) [Example 23, 2-[1-[6-Methyl-2-(1-methylindazol-3-yl)-4-oxo-chromen-8-yl]ethylamino]benzoic acid]
1 to 5 µM	< 0.5 µM			Cc1cc(C(C)Nc2ccccc2C(=O)O)c2oc(-c3ccc4c(C)n[nH]c4c3)cc(=O)c2c1 (single isomer, unassigned) [Example 28, 2-[1-[6-Methyl-2-(3-methyl-1H-indazol-6-yl)-4-oxo-chromen-8-yl]ethylamino]benzoic acid]
1 to 5 µM	< 0.5 µM			Cc1cc(C(C)Nc2ccccc2C(=O)O)c2oc(-c3ccc4c(c3)CN(C)C4=O)cc(=O)c2c1 (single isomer, unassigned) [Example 31, 2-[1-[6-Methyl-2-(2-methyl-1-oxo-isoindolin-5-yl)-4-oxo-chromen-8-yl]ethylamino]benzoic acid]
1 to 5 µM	< 0.5 µM			Cc1cc(C(C)Nc2ccccc2C(=O)O)c2oc(-c3ccc4nccn4n3)cc(=O)c2c1 (single isomer, unassigned) [Example 36, 2-[1-(2-Imidazo[1,2-b]pyridazin-6-yl-6-methyl-4-oxo-chromen-8-yl)ethylamino]benzoic acid]
1 to 5 µM	< 0.5 µM			Cc1cc(C(C)Nc2ccccc2C(=O)O)c2oc(-c3ccc4nc(C)cn4c3)cc(=O)c2c1 (single isomer, unassigned) [Example 38, 2-[1-[6-Methyl-2-(2-methylimidazo[1,2-a]pyridin-6-yl)-4-oxo-chromen-8-yl]ethylamino]benzoic acid]
5 to 10 µM	1 to 5 µM			Cc1cc(C(C)Nc2ccccc2C(=O)O)c2oc(-c3cnc4nn(C)cc4c3)cc(=O)c2c1 (single isomer, unassigned) [Example 41, 2-[1-[6-Methyl-2-(2-methylpyrazolo[3,4-b]pyridin-5-yl)-4-oxo-chromen-8-yl]ethylamino]benzoic acid]
1 to 5 µM	< 0.5 µM			Cc1cc(C(C)Nc2ccccc2C(=O)O)c2oc(-c3cnc4nn(C)cc4c3)cc(=O)c2c1 (single isomer, unassigned) [Example 42, 2-[1-[6-Methyl-2-(2-methylpyrazolo[3,4-b]pyridin-5-yl)-4-oxo-chromen-8-yl]ethylamino]benzoic acid]
> 10 µM	> 10 µM			Cc1cc(C(C)Nc2ccccc2C(=O)O)c2oc(-c3cnc4cn(C)nc4c3)cc(=O)c2c1 (single isomer, unassigned) [Example 43, 2-[1-[6-Methyl-2-(2-methylpyrazolo[4,3-b]pyridin-6-yl)-4-oxo-chromen-8-yl]ethylamino]benzoic acid]
5 to 10 µM	1 to 5 µM			Cc1cc(C(C)Nc2ccccc2C(=O)O)c2oc(-c3cnc4cn(C)nc4c3)cc(=O)c2c1 (single isomer, unassigned) [Example 44, 2-[1-[6-Methyl-2-(2-methylpyrazolo[4,3-b]pyridin-6-yl)-4-oxo-chromen-8-yl]ethylamino]benzoic acid]
< 0.5 µM	< 0.5 µM			Cc1cc(C(C)Nc2ccccc2C(=O)O)c2oc(-c3cccc4c3OCO4)cc(=O)c2c1 (single isomer, unassigned) [Example 45, 2-[1-[2-(1,3-Benzodioxol-4-yl)-6-methyl-4-oxo-chromen-8-yl]ethylamino]benzoic acid]
		< 0.5 µM	< 0.5 µM	Cc1cc(C(C)Nc2ccccc2C(=O)O)c2oc(-c3ccc4c(c3)OCO4)cc(=O)c2c1 (single isomer, unassigned) [Example 46, 2-[1-[2-(1,3-Benzodioxol-5-yl)-6-methyl-4-oxo-chromen-8-yl]ethylamino]benzoic acid]
1 to 5 µM	< 0.5 µM			Cc1cc(C(C)Nc2ccccc2C(=O)O)c2oc(-c3ccc4cnncc4c3)cc(=O)c2c1 (single isomer, unassigned) [Example 47, 2-[1-(6-Methyl-4-oxo-2-phthalazin-6-yl-chromen-8-yl)ethylamino]benzoic acid]
< 0.5 µM	< 0.5 µM			Cc1cc(C(C)Nc2ccccc2C(=O)O)c2oc(-n3ncc4ncccc43)cc(=O)c2c1 (single isomer, unassigned) [Example 48, 2-[1-(6-Methyl-4-oxo-2-pyrazolo[4,3-b]pyridin-1-yl-chromen-8-yl)ethylamino]benzoic acid]
1 to 5 µM	< 0.5 µM			Cc1cc(C(C)Nc2ccccc2C(=O)O)c2oc(-n3cc4ccccc4n3)cc(=O)c2c1 (single isomer, unassigned) [Example 50, 2-[1-(2-Indazol-2-yl-6-methyl-4-oxo-chromen-8-yl)ethylamino]benzoic acid]
1 to 5 µM	< 0.5 µM			Cc1cc(C(C)Nc2ccccc2C(=O)O)c2oc(-c3ccc4c(cnn4C)n3)cc(=O)c2c1 (single isomer, unassigned) [Example 53, 2-[1-[6-Methyl-2-(1-methylpyrazolo[4,3-b]pyridin-5-yl)-4-oxo-chromen-8-yl]ethylamino]benzoic acid]
> 10 µM	> 10 µM			Cc1cn2cc(-c3oc4c(C(C)Nc5ccccc5C(=O)O)cc(F)cc4c(=O)c3C)ccc2n1 (single isomer, unassigned) [Example 56, 2-[1-[6-Fluoro-3-methyl-2-(2-methylimidazo[1,2-a]pyridin-6-yl)-4-oxo-chromen-8-yl]ethylamino]benzoic acid]

SMILES	IC50 ([1]; Soy PI lipid substrate)	IC50 ([2]; Soy PI lipid substrate)	IC50 [1, 3]	IC50 [2, 3]
Cc1cc(C(C)Nc2ccccc2C(=O)O)c2oc(-c3ccc4cc[nH]c4c3)cc(=O)c2c1 (single isomer, unassigned) [Example 21, 2-[1-[2-(1H-Indol-6-yl)-6-methyl-4-oxo-chromen-8-yl]ethylamino]benzoic acid]	0.5 to 1 µM	< 0.5 µM		
Cc1cc(C(C)Nc2ccccc2C(=O)O)c2oc(-c3cnn4ccccc34)cc(=O)c2c1 (single isomer, unassigned) [Example 29, 2-[1-(6-Methyl-4-oxo-2-pyrazolo[1,5-a]pyridin-3-yl-chromen-8-yl)ethylamino]benzoic acid]	5 to 10 µM	< 0.5 µM		
Cc1cc(C(C)Nc2ccccc2C(=O)O)c2oc(-c3cc4ccncc4o3)cc(=O)c2c1 (single isomer, unassigned) [Example 39, 2-[1-(2-Furo[2,3-c]pyridin-2-yl-6-methyl-4-oxo-chromen-8-yl)ethylamino]benzoic acid]	1 to 5 µM	< 0.5 µM		
